Patent publication US20060089395A1, “Nf-kb activation inhibitors” (priority 2002, published 2006)

System: NF-κ B
Experiment: Inhibitory activity of NF-κ B activation, luciferase reporter assay in HepG2 under TNF-α stimulation
Format: cell-based, human
Conditions: HepG2, TNF-α (40 ng/ml), 4 hours; for inhibition at 1 µg/mL / inhibition at 10 µg/mL: Homo sapiens; for inhibition at 1 µg/mL / Inhibitory Ratio of NF-κ B Activation(%) Drug Concentration 1 μg/mL: 1 μg/mL; for inhibition at 1 µg/mL: read-out: Inhibitory Ratio of NF-κ B Activation(%) Drug Concentration 1 μg/mL; for inhibition at 10 µg/mL / Inhibitory Ratio of NF-κ B Activation(%) Drug Concentration 10 μg/mL: 10 μg/mL; for inhibition at 10 µg/mL: read-out: Inhibitory Ratio of NF-κ B Activation(%) Drug Concentration 10 μg/mL
Protocol: Using a transfection reagent(Effectene; QIAGEN), the human hepatoma cell strain HepG2 was transfected with a plasmid(pNF κ B-Luc Reporter Plasmid; […]) which is integrated with an oligonucleotide having five tandem copies of NF-κ B binding sequences([…]) on a upstream region of firefly luciferase gene(Luc) according to the QIAGEN's protocol, and the cells were incubated for 6 to 24 hours. After the addition of TNF-α (40 ng/ml) in the presence or absence of a test compound, the cells were incubated for 4 hours, and intracellular luciferase activity was measured by using PicaGene LT (TOYO INK MFG Co., Ltd.) and a chemical luminescence measurement apparatus ([…]luor Plus; TECAN). The inhibitory ratio was measured as a ratio relative to the value of a luciferase activity in the absence of the test compound.

Compound	Inhibitory Ratio of NF-κ B Activation(%) Drug Concentration 1 μg/mL	Inhibitory Ratio of NF-κ B Activation(%) Drug Concentration 10 μg/mL	inhibition at 1 µg/mL	inhibition at 10 µg/mL
O=C(Nc1cc(C(F)(F)F)cc(C(F)(F)F)c1)c1cccc(-c2ccccc2)c1O [Compound No. 249, N-[3,5-bis(trifluoromethyl)phenyl]-2-hydroxy-3-phenylbenzamide]	–	–	86.6%	90.7%
C[Si](C)(C)C#Cc1ccc(O)c(C(=O)Nc2cc(C(F)(F)F)cc(C(F)(F)F)c2)c1 [Compound No. 20, N-[3,5-bis(trifluoromethyl)phenyl]-2-hydroxy-5-[(trimethylsilyl)ethynyl]benzamide]	–	–	91.1%	94.9%
COC(=O)C(C#N)=Cc1ccc(O)c(C(=O)Nc2cc(C(F)(F)F)cc(C(F)(F)F)c2)c1 [Compound No. 17, 3-({N-[3,5-bis(trifluoromethyl)phenyl]carbamoyl}-4-hydroxyphenyl)-2-cyanoacrylic acid methyl ester]	74.9%	99.1%	–	–
O=C(Nc1cc(C(F)(F)F)ccc1Oc1ccc(Cl)cc1Cl)c1cc(Cl)ccc1O [Compound No. 111]	96.5%	99.7%	–	–
O=C(Nc1cc(Cl)cc(Cl)c1)c1cc(I)ccc1O [Compound No. 127]	85.4%	97.1%	–	–
O=C(Nc1cc(C(F)(F)F)ccc1N1CCCC1)c1cc(Br)ccc1O [Compound No. 97]	95.8%	97.8%	–	–
O=C(Nc1cc(Cl)ccc1Cl)c1cc(Cl)ccc1O [Compound No. 122]	95.1%	96.9%	–	–
CCOC(=O)c1sc(NC(=O)c2cc(-n3cccc3)ccc2O)nc1-c1ccccc1 [Compound No. 229]	74.0%	90.1%	–	–
O=C(Nc1cc(C(F)(F)F)cc(C(F)(F)F)c1)c1cc(I)ccc1O [Compound No. 7, N-[3,5-bis(trifluoromethyl)phenyl]-2-hydroxy-5-iodobenzamide]	–	–	86.6%	85.4%
COc1ccc(C(C)(C)C)cc1NC(=O)c1cc(Cl)ccc1OC(C)=O [Compound No. 136]	91.0%	99.4%	–	–
Cc1ccc(O)c(C(=O)Nc2cc(C(F)(F)F)ccc2C(F)(F)F)c1 [Compound No. 84]	92.6%	96.6%	–	–
CC(=O)Oc1ccc(Cl)cc1C(=O)Nc1cc(C(F)(F)F)ccc1Cl [Compound No. 89]	96.7%	97.4%	–	–
CC(C)c1cccc(C(=O)Nc2cc(C(F)(F)F)cc(C(F)(F)F)c2)c1O [Compound No. 256, N-[3,5-bis(trifluoromethyl)phenyl]-2-hydroxy-3-isopropylbenzamide]	–	–	92.1%	–
O=C(Nc1cc(Cl)cc(Cl)c1)c1cc(F)ccc1O [Compound No. 124]	94.2%	97.0%	–	–
O=C(Nc1cc(C(F)(F)F)cc(C(F)(F)F)c1)c1cc(N=Nc2ccc(S(=O)(=O)Nc3ccccn3)cc2)ccc1O [Compound No. 49]	19.4%	89.1%	–	–
COC(=O)c1cc(NC(=O)c2cc(Cl)ccc2O)cc(C(F)(F)F)c1 [Compound No. 108, 5-chloro-2-hydroxy-N-[3-methoxycarbonyl-5-(trifluoromethyl)phenyl]benzamide]	–	–	41.5%	88.4%
O=C(Nc1cc(C(F)(F)F)cc(C(F)(F)F)c1)c1cc(C(F)(F)C(F)(F)F)ccc1O [Compound No. 26]	93.3%	95.4%	–	–
O=C(Nc1nc(-c2ccc(C(F)(F)F)cc2)cs1)c1cc(Cl)ccc1O [Compound No. 261, 5-Chloro-2-hydroxy-N-{4-[4-(trifluoromethyl)phenyl]thiazol-2-yl}benzamide]	–	–	> 99.9%	–
O=C(Nc1cc(C(F)(F)F)cc(C(F)(F)F)c1)c1cc(NC(=S)Nc2ccccc2)ccc1O [Compound No. 47]	51.8%	97.2%	–	–
CC(C)(C)c1nc(NC(=O)c2cc(Cl)ccc2O)sc1C#N [Compound No. 188, 5-Chloro-N-{5-cyano-4-[(1,1-dimethyl)ethyl]thiazol-2-yl)-2-hydroxybenzamide]	–	–	92.6%	92.4%

Continued, in another order:

Inhibitory Ratio of NF-κ B Activation(%) Drug Concentration 1 μg/mL	Inhibitory Ratio of NF-κ B Activation(%) Drug Concentration 10 μg/mL	Compound	inhibition at 1 µg/mL	inhibition at 10 µg/mL
69.6%	96.5%	COc1ccc(C)c(NC(=O)c2cc(Cl)ccc2O)c1 [Compound No. 160]	–	–
90.7%	93.7%	O=C(Nc1cc(F)cc(F)c1)c1cc(Cl)ccc1O [Compound No. 180]	–	–
92.1%	97.4%	COc1ccc(C(N)=O)cc1NC(=O)c1cc(Cl)ccc1O [Compound No. 163]	–	–
–	86.8%	COc1ccc(OC)c(NC(=O)c2cc3ccccc3cc2O)c1 [Compound No. 183]	–	–
95.0%	97.7%	CC(=O)Oc1ccc(Cl)cc1C(=O)Nc1nc(C(C)(C)C)c(C(=O)C(C)(C)C)s1 [Compound No. 200]	–	–
37.4%	87.1%	COc1ccc(C(C)(C)C)cc1NC(=O)c1cc(C)ccc1O [Compound No. 149]	–	–
52.4%	96.8%	COc1ccc(OC)c(NC(=O)c2cc(Cl)ccc2O)c1 [Compound No. 158]	–	–
84.2%	95.1%	O=C(Nc1cccc(Br)n1)c1cc(Cl)ccc1O [Compound No. 243]	–	–
86.3%	92.6%	Cc1cc(C)cc(NC(=O)c2cc(Br)ccc2O)c1 [Compound No. 137]	–	–
31.6%	95.9%	Cc1ccc(S(=O)(=O)c2ccc(Cl)c(NC(=O)c3cc(Cl)ccc3O)c2)cc1 [Compound No. 169]	–	–
86.4%	98.3%	COc1ccc(C(C)(C)c2ccccc2)cc1NC(=O)c1cc(Cl)ccc1O [Compound No. 173]	–	–
92.5%	93.4%	O=C(Nc1cc(F)ccc1F)c1cc(Cl)ccc1O [Compound No. 179]	–	–
32.4%	95.7%	COc1ccc(OC)c(NC(=O)c2cc(Br)ccc2O)c1 [Compound No. 142]	–	–
–	69.7%	Cc1cnc(NC(=O)c2cc(Br)ccc2O)s1 [Compound No. 190]	–	–
